Data from patent US20080268535A1, “Method for Inducing the Differentiation of Human Myelogenous Leukemia Cells Into Megakarocytes or Thrombocytes” (EWHA University - Industry Collaboration Foundation, priority 2005, published 2008).

How the values were obtained:
Format in all cases: cell-based, human
K562 cells [1] = test: MTT cytotoxicity assay of (R)-NALPCE; details: 10 to 50 μg/ml, 48 hrs incubation
Method: In order to examine whether the compound (R)-NALPCE is toxic to cells, MTT (3-[4,5-dimethylthiazol-2-yl]-2,5-diphenyltetrazolium bromide) assay was conducted in K562 cells which are the leukemia cells derived from human bone marrow. These cells were aliquoted at a density of 4×10^4 cells per well in 96-well plates and treated with various concentrations of (R)-NALPCE, followed by incubation for 48 hrs. Thereafter, an MTT solution was added in an amount of 20 μl to each well. Incubation at 37° C. for 4 hrs, treatment with a 20% sodium dodecyl sulfate (SDS) solution (in an equivolume mixture of N,N-dimethylformamide and distilled water), and incubation at 37° C. for 16 hrs were sequentially conducted in that order before the absorbance at 570 nm was read using an ELISA reader (Bio-Tek Instrument, Winiiski, Vt.). The assay was conducted in triplicate.

HEL cells = test: Growth curve of HEL cells (trypan blue viable cell count); details: 5 μg/ml, counted every day for 5 days
Method: To examine the effect of the compound (R)-NALPCE on cell growth, the HEL cells was monitored for growth curve in the presence thereof. The cells were aliquoted at a density of 3×10^5 cells per well in 6-well plates and treated with 5 μg/ml of (R)-NALPCE. After staining with trypan blue, viable cells were counted every day for 5 days.

K562 cells [2] = test: Differentiation inductivity, lineage receptor expression by FACS, K562 cells; details: K562 cells, 40 μg/ml (R)-NALPCE or 30 nM PMA, 4 days
Method: K562 cells were aliquoted at a density of 2×10^5 per well in 6-well plates and treated with 40 μg/ml of (R)-NALPCE or 30 nM of PMA (12-phorbol myristate-13-acetate, Calbiochem.), followed by incubation for 4 days. After centrifugation (1,000 rpm, 10 min), the cell pellets thus obtained were washed three times with 0.01% bovine serum albumin (BSA) in PBS. The cells were incubated with 10 μl of anti-CD41-fluorescein-5-isothiocyanate (FITC) (Dako Chemicals, Carpenteria, Calif.), 20 μl of anti-CD16-Cy-Chrome (Cy) (BD Pharmingen), 10 μl of anti-glycophorin ACD235a-phycoerythrin (PE) (Dako Chemicals, Carpenteria, Calif.), and 20 μl of anti-CD14-allophycocyanin (APC) (BD Pharmingen) in 200 μl of 0.01% bovine serum albumin (BSA)-PBS at 4° C. for 50 min while spinning to realize homogeneous fluorescent staining. After centrifugation (1,000 rpm, 10 min), the cell pellets thus obtained were washed three times with 0.01% bovine serum albumin (BSA) in PBS. Fluorescence was analyzed on a fluorescence-activated cell sorter (FACS) (Aria) using a Cellquest program.

K562 cells [3] = test: Cell differentiation of K562 cells on OP9 cells, optical microscopy
Method: A stromal line of OP9 cells derived from […] was aliquoted at a density of 1×10^5 cells in 6-well plates and incubated for 24 hrs. After the OP9 cells were uniformly attached onto the bottom of the plates, K562 cells were layered at a density of 1×10^5 cells on the OP9 cells in 6-well plates. The cells were treated with 40 μg/ml of (R)-NALPCE, or 500 pmole, 10 nmole or 50 nmole of PMA before incubation for 5 days. They were observed under an optical microscope with 200× magnification.

K562 cells [4] = test: Production of thrombocytes, K562 cells on OP9 cells, optical microscopy; details: 40 μg/ml
Method: An experiment was conducted in a manner similar to that of Example 7. OP9 cells were aliquoted at a density of 1×10^5 cells per well in 6-well plates and incubated for 24 hrs. After OP9 cells were uniformly attached onto the bottom of the plates, K562 cells were layered at a density of 1×10^5 cells per well over the OP cells in the 6-well plates. Treatment with 40 μg/ml of (R)-NALPCE was conducted before incubation in a day-dependent manner for 5 days. They were observed under an optical microscope with 200× magnification.

K562 cells [5] = test: Active form of platelet-like cells secreted from differentiated K562 cells, fluorescence microscopy
Method: OP9 cells were aliquoted at a density of 1×10^5 cells per well in 6-well plates and incubated for 24 hrs. After the OP9 cells were uniformly attached onto the bottom of the plates, K562 cells were layered at a density of 1×10^5 cells over the OP9 cells in the 6-well plates. The cells were treated with 40 μg/ml of (R)-NALPCE before incubation in a day-dependent manner for 5 days. […] The platelet-like cells were separated from the megakaryocytes by centrifuging the differentiated K562 cells at 500 rpm for 20 min and further centrifuging the supernatant at 3,000 rpm for 10 min.
A morphological comparison was made between the platelet-like cells and the pre-existing blood platelets using fibrinogen-coated slides. General slides (POLY-PREP, Sigma, U.S.A.) were coated with 20 μg/ml of fibrinogen in PBS ((R)-NALPCE-treated group) or with 1% bovine serum albumin (control) in PBS, and then incubated at 37° C. for 2 hrs in a humid atmosphere. A suspension of the separated platelet-like cells and the pre-existing blood platelets in PBS was placed on the slides. […] A drop of a mounting solution was spotted on the slides, which were then covered with a coverslip before observation under a fluorescence microscope. […] The cells thus stained were very gently washed three times with PBS and observed using a fluorescence microscope (Axiovision, Zeiss) with 400× magnification.

SMILES: CCCCCCCCCCCCCCCCCC(=O)NC(COP(=O)([O-])OCC[N+](C)(C)C)C(=O)OC [(R)-NALPCE, N-steroyl-O-phosphocholine-D-serine methyl ester]
- cytotoxicity on K562 cells (MTT) (K562 cells [1]): does not exert cytotoxicity
- cell growth curve (viable cells) (HEL cells): relatively low cell growth curve
- expression of CD41, CD16, glycophorin A and CD14 receptors (K562 cells [2]): CD41 and CD16 were specifically expressed
- production or secretion of thrombocytes by differentiated megakaryocytes (K562 cells [3]; (R)-NALPCE with OP9 cells, PMA treatment): released a lot of thrombocytes
- cell morphology (optical microscope) (K562 cells [3]; K562 cells on OP9 cells, 40 μg/ml, 5 days): increased in size in a time-dependent manner, and anucleate cells such as thrombocytes were observed
- cell size (optical microscope) (K562 cells [4]; 5 days): increased in size in a time-dependent manner
- appearance of anucleate cells (K562 cells [4]; from Day 4 after the treatment): anucleate cells, such as thrombocytes, were observed
- appearance of anucleate platelet-like cells (K562 cells [5]; K562 cells on OP9 cells, 40 μg/ml, Day 5 after the treatment): a large number of anucleate platelet-like cells appeared
- activation of released anucleate cells (K562 cells [5]; fibrinogen-coated slides, activators ADP, epinephrine, AYPGFK, MnCl2): activated in the same manner as the pre-existing blood platelets
